# Reference: patent US10626112B2, “Heterocyclic sulfonamide derivative and medicine comprising same” (EA PHARMA CO., LTD., priority 2014, dated 2020)
# Biological target: human TRPA1 (Homo sapiens (Human), UniProt O75762)
# Experiment: Measurement of TRPA1 antagonist activity (1): intracellular calcium increase
# Format: cell-based
# Conditions: 293T cells transfected with human TRPA1 expression plasmid; allylisothiocyanate 20 μM stimulation; intracellular calcium fluorescence; read-out: hTRPA1 IC50
# Method in brief: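 Calcium-flux readout of TRPA1 block: compound given 10 min before 20 μM (final) allylisothiocyanate, fluorescence tracked 5 min. Cells were 293T transiently expressing human TRPA1, dye-loaded 1 hr in HBSS, 20 mM HEPES, pH 7.2. Inhibition scaled between agonist-only and buffer-only responses; IC50 by sigmoid fitting.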
# Sequence of human TRPA1 (O75762 whole entry): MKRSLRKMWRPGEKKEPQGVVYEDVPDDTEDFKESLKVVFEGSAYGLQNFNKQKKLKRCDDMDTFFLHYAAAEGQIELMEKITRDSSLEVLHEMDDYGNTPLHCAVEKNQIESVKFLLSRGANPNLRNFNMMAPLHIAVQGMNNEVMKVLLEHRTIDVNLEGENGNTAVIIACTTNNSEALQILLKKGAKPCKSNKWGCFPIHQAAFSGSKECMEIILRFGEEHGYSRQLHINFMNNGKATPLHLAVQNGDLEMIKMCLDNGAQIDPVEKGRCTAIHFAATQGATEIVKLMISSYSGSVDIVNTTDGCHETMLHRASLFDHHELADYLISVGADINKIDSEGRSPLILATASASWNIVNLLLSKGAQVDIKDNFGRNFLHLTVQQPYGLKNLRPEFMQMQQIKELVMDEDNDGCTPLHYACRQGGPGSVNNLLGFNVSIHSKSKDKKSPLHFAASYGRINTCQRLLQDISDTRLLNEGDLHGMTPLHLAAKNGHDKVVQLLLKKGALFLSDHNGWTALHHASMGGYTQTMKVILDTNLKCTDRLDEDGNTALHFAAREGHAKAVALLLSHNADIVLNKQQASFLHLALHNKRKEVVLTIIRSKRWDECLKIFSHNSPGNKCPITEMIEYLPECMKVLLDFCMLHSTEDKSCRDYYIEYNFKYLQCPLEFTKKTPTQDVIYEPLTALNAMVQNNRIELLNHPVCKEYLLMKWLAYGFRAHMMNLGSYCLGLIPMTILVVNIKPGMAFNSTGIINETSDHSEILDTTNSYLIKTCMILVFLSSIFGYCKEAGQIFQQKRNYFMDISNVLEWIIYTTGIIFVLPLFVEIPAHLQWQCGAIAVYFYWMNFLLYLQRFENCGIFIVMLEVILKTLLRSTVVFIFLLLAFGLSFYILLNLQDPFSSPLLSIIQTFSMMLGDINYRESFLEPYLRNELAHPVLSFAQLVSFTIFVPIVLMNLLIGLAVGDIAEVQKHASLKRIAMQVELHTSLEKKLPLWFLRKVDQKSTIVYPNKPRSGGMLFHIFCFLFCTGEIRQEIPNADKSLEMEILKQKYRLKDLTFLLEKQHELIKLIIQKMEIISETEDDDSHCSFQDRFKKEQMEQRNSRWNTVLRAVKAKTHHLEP
row,IC50 [nM],Compound
1,180,"O=C(NCc1cccc(-c2ccc(C(F)(F)F)cc2O)n1)[C@@H]1CCCN1S(=O)(=O)c1cc2cc(F)ccc2o1 [Example 147, (2S)-1-(5-fluorobenzofuran-2-yl)sulfonyl-N-[[6-[2-hydroxy-4-(trifluoromethyl)phenyl]-2-pyridyl]methyl]pyrrolidine-2-carboxamide]"
2,2.2,"O=C(NCc1cc(-c2ccc(C(F)(F)F)cc2)ccn1)[C@@H]1CCCN1S(=O)(=O)c1cc2cc(F)ccc2o1 [Example 148, (2S)-1-(5-fluorobenzofuran-2-yl)sulfonyl-N-[[4-[4-(trifluoromethyl)phenyl]-2-pyridyl]methyl]pyrrolidine-2-carboxamide]"
3,1.5,"O=C(NCc1cc(-c2ccc(C(F)(F)F)nc2)ccn1)[C@@H]1CCCN1S(=O)(=O)c1cc2cc(F)ccc2o1 [Example 149, (2S)-1-(5-fluorobenzofuran-2-yl)sulfonyl-N-[[4-[6-(trifluoromethyl)-3-pyridyl]-2-pyridyl]methyl]pyrrolidine-2-carboxamide]"
4,13,"N#Cc1ccc(-c2ccnc(CNC(=O)[C@@H]3CCCN3S(=O)(=O)c3cc4cc(F)ccc4o3)c2)cc1 [Example 150, (2S)-N-[[4-(4-cyanophenyl)-2-pyridyl]methyl]-1-(5-fluorobenzofuran-2-yl)sulfonyl-pyrrolidine-2-carboxamide]"
5,1.9,"O=C(NCc1cc(-c2ccc(C(F)(F)F)nc2)ccn1)[C@@H]1CCCN1S(=O)(=O)c1cc2ccccc2o1 [Example 151, (2S)-1-(benzofuran-2-ylsulfonyl)-N-[[4-[6-(trifluoromethyl)-3-pyridyl]-2-pyridyl]methyl]pyrrolidine-2-carboxamide]"
6,160,"N#Cc1ccc(-c2ccnc(CNC(=O)[C@@H]3CCCN3S(=O)(=O)c3cc4ccccc4o3)c2)nc1 [Example 152, (2S)-1-(benzofuran-2-ylsulfonyl)-N-[[4-(5-cyano-2-pyridyl)-2-pyridyl]methyl]pyrrolidine-2-carboxamide]"
7,5.6,"O=C(NCc1cc(-c2ccc(OC(F)(F)F)cc2)ccn1)[C@@H]1CCCN1S(=O)(=O)c1cc2ccccc2o1 [Example 153, (2S)-1-(benzofuran-2-ylsulfonyl)-N-[[4-[4-(trifluoromethoxy)phenyl]-2-pyridyl]methyl]pyrrolidine-2-carboxamide]"
8,42,"Cn1nc(C(F)(F)F)cc1-c1ccnc(CNC(=O)[C@@H]2CCCN2S(=O)(=O)c2cc3ccccc3o2)c1 [Example 154, (2S)-1-(benzofuran-2-ylsulfonyl)-N-[[4-[2-methyl-5-(trifluoromethyl)pyrazol-3-yl]-2-pyridyl]methyl]pyrrolidine-2-carboxamide]"
9,4,"O=C(NCc1cccc(-c2ccc(F)cc2)c1)[C@@H]1CCCN1S(=O)(=O)c1cc2cc(F)ccc2o1 [Example 155, (2S)-1-(5-fluorobenzofuran-2-yl)sulfonyl-N-[[3-(4-fluorophenyl)phenyl]methyl]-pyrrolidine-2-carboxamide]"
10,2.1,"O=C(NCc1cccc(-c2ccc(Cl)cc2)c1)[C@@H]1CCCN1S(=O)(=O)c1cc2cc(F)ccc2o1 [Example 156, (2S)-N-[[3-(4-chlorophenyl)phenyl]methyl]-1-(5-fluorobenzofuran-2-yl)sulfonyl-pyrrolidine-2-carboxamide]"
11,0.48,"O=C(NCc1cccc(-c2ccc(C(F)(F)F)cc2)c1)[C@@H]1CCCN1S(=O)(=O)c1cc2cc(F)ccc2o1 [Example 157, (2S)-1-(5-fluorobenzofuran-2-yl)sulfonyl-N-[[3-[4-(trifluoromethyl)phenyl]-phenyl]methyl]pyrrolidine-2-carboxamide]"
12,0.83,"O=C(NCc1cccc(-c2ccc(OC(F)(F)F)cc2)c1)[C@@H]1CCCN1S(=O)(=O)c1cc2cc(F)ccc2o1 [Example 158, (2S)-1-(5-fluorobenzofuran-2-yl)sulfonyl-N-[[3-[4-(trifluoromethoxy)phenyl]-phenyl]methyl]pyrrolidine-2-carboxamide]"
13,6.2,"CN(C)c1ccc(-c2cccc(CNC(=O)[C@@H]3CCCN3S(=O)(=O)c3cc4cc(F)ccc4o3)c2)cn1 [Example 159, (2S)-N-[[3-[6-(dimethylamino)-3-pyridyl]phenyl]methyl]-1-(5-fluorobenzofuran-2-yl)sulfonyl-pyrrolidine-2-carboxamide]"
14,19,"O=C(NCc1cccc(-c2ccc(N3CCCC3)nc2)c1)[C@@H]1CCCN1S(=O)(=O)c1cc2cc(F)ccc2o1 [Example 160, (2S)-1-(5-fluorobenzofuran-2-yl)sulfonyl-N-[[3-(6-pyrrolidin-1-yl-3-pyridyl)phenyl]methyl]-pyrrolidine-2-carboxamide]"
15,27,"O=C(NCc1cccc(-c2ccc(N3CCOCC3)nc2)c1)[C@@H]1CCCN1S(=O)(=O)c1cc2cc(F)ccc2o1 [Example 161, (2S)-1-(5-fluorobenzofuran-2-yl)sulfonyl-N-[[3-(6-morpholino-3-pyridyl)phenyl]methyl]-pyrrolidine-2-carboxamide]"
16,51,"CNC(=O)c1ccc(-c2cccc(CNC(=O)[C@@H]3CCCN3S(=O)(=O)c3cc4cc(F)ccc4o3)c2)cn1 [Example 162, 5-[3-[[[(2S)-1-(5-fluorobenzofuran-2-yl)sulfonylpyrrolidine-2-carbonyl]amino]methyl]phenyl]-N-methyl-pyridine-2-carboxamide]"

row,IC50 [nM],Compound
1,31,"N#Cc1cncc(-c2cccc(CNC(=O)[C@@H]3CCCN3S(=O)(=O)c3cc4cc(F)ccc4o3)c2)c1 [Example 163, (2S)-N-[[3-(5-cyano-3-pyridyl)phenyl]methyl]-1-(5-fluorobenzofuran-2-yl)sulfonyl-pyrrolidine-2-carboxamide]"
2,190,"O=C(NCc1ccc(-c2ccc(C(F)(F)F)cc2)cc1)[C@@H]1CCCN1S(=O)(=O)c1cc2ccccc2o1 [Example 165, (2S)-1-(benzofuran-2-ylsulfonyl)-N-[[4-[4-(trifluoromethyl)phenyl]-phenyl]methyl]pyrrolidine-2-carboxamide]"
3,260,"O=C(NCc1ccc(-c2cccc(C(F)(F)F)c2)cc1)[C@@H]1CCCN1S(=O)(=O)c1cc2ccccc2o1 [Example 166, (2S)-1-(benzofuran-2-ylsulfonyl)-N-[[4-[3-(trifluoromethyl)phenyl]-phenyl]methyl]pyrrolidine-2-carboxamide]"
4,140,"O=C(NCc1ccc(-c2ccccc2C(F)(F)F)cc1)[C@@H]1CCCN1S(=O)(=O)c1cc2ccccc2o1 [Example 167, (2S)-1-(benzofuran-2-ylsulfonyl)-N-[[4-[2-(trifluoromethyl)phenyl]-phenyl]methyl]pyrrolidine-2-carboxamide]"
5,180,"O=C(NCc1ccc(-c2ccc(F)cc2)cc1)[C@@H]1CCCN1S(=O)(=O)c1cc2ccccc2o1 [Example 168, (2S)-1-(benzofuran-2-ylsulfonyl)-N-[[4-(4-fluorophenyl)phenyl]methyl]-pyrrolidine-2-carboxamide]"
6,150,"O=C(NCc1ccc(-c2cccc(F)c2)cc1)[C@@H]1CCCN1S(=O)(=O)c1cc2ccccc2o1 [Example 169, (2S)-1-(benzofuran-2-ylsulfonyl)-N-[[4-(3-fluorophenyl)phenyl]methyl]-pyrrolidine-2-carboxamide]"
7,230,"N#Cc1ccc(-c2ccc(CNC(=O)[C@@H]3CCCN3S(=O)(=O)c3cc4ccccc4o3)cc2)cc1 [Example 170, (2S)-1-(benzofuran-2-ylsulfonyl)-N-[[4-(4-cyanophenyl)phenyl]methyl]-pyrrolidine-2-carboxamide]"
8,510,"N#Cc1cccc(-c2ccc(CNC(=O)[C@@H]3CCCN3S(=O)(=O)c3cc4ccccc4o3)cc2)c1 [Example 171, (2S)-1-(benzofuran-2-ylsulfonyl)-N-[[4-(3-cyanophenyl)phenyl]methyl]-pyrrolidine-2-carboxamide]"
9,11,"CN(C)c1ccc(-c2ccc(F)c(CNC(=O)[C@@H]3CCCN3S(=O)(=O)c3cc4ccccc4o3)c2)cn1 [Example 172, (2S)-1-(benzofuran-2-ylsulfonyl)-N-[[5-[6-(dimethylamino)-3-pyridyl]-2-fluoro-phenyl]methyl]pyrrolidine-2-carboxamide]"
10,17,"O=C(NCc1cc(-c2cnc(C3CC3)nc2)ccc1F)[C@@H]1CCCN1S(=O)(=O)c1cc2ccccc2o1 [Example 173, (2S)-1-(benzofuran-2-ylsulfonyl)-N-[[5-(2-cyclopropylpyrimidin-5-yl)-2-fluoro-phenyl]methyl]pyrrolidine-2-carboxamide]"
11,29,"CN(C)c1ncc(-c2ccc(F)c(CNC(=O)[C@@H]3CCCN3S(=O)(=O)c3cc4ccccc4o3)c2)cn1 [Example 174, (2S)-1-(benzofuran-2-ylsulfonyl)-N-[[5-[2-(dimethylamino)pyrimidin-5-yl]-2-fluoro-phenyl]methyl]pyrrolidine-2-carboxamide]"
12,13,"CN(C(=O)OC(C)(C)C)c1ccc(-c2ccc(F)c(CNC(=O)C3CCCN3S(=O)(=O)c3cc4ccccc4o3)c2)cn1 [Example 175, tert-butyl N-[5-[3-[[[(2S)-1-benzofuran-2-ylsulfonyl)pyrrolidine-2-carbonyl]amino]methyl]-4-fluoro-phenyl]-2-pyridyl]-N-methylcarbamate]"
13,320,"O=C(NCc1ccnc(-c2cc3ccccc3[nH]2)c1)[C@@H]1CCCN1S(=O)(=O)c1cc2ccccc2o1 [Example 176, (2S)-1-(benzofuran-2-ylsulfonyl)-N-[[2-(1H-indol-2-yl)-4-pyridyl]methyl]pyrrolidine-2-carboxamide]"
14,300,"CNc1ccc(-c2ccc(F)c(CNC(=O)[C@@H]3CCCN3S(=O)(=O)c3cc4ccccc4o3)c2)cn1 [Example 177, (2S)-1-(benzofuran-2-ylsulfonyl)-N-[[2-fluoro-5-[6-(methylamino)-3-pyridyl]phenyl]methyl]pyrrolidine-2-carboxamide]"
15,46,"O=C(NCc1ccnc(-c2ccc(C(F)(F)F)cn2)c1)[C@@H]1CCCN1S(=O)(=O)c1cc2ccccc2o1 [Example 178, (2S)-1-(benzofuran-2-ylsulfonyl)-N-[[2-[5-(trifluoromethyl)-2-pyridyl]-4-pyridyl]methyl]pyrrolidine-2-carboxamide]"
